In one series the test system is Fmr1 KO mice. Kind of series: Audiogenic seizure (AGS) status epilepticus rescue in Fmr1 knockout mice. The class given is in vivo. The conditions noted are these: 3, 10, 30 mg/kg IP in 30% b-Cyclodextrin; relative to vehicle treated control. On the procedure: FIG. 1A is a bar graph depicting the percent seizure in fmr1 KO mice intraperitoneally administered 3, 10, 30 mg/kg allopregnanolone in 30% β-Cyclodextrin. FIG. 1B is a bar graph depicting the percent survival in fmr1 KO mice intraperitoneally administered 3, 10, 30 mg/kg allopregnanolone in 30% β-Cyclodextrin.
Plasma levels of six animals in each Allopregnanolone treatment group were collected randomly at completion of study and analyzed by LC-MS/MS. Bioanalytical measures are indicated in ng/mL (FIG. 1A). Data are presented as mean+/−SEM. *P<0.05 indicate a statistically significant difference relative to vehicle control by Fisher's PLSD. MPEP 30 mg/kg was used as a positive control in the study.

The test system of series [1] is PTZ-treated C57BL6/J mice. The series is described as follows: PTZ (pentylenetetrazol) seizure model, prevention of status epilepticus. Format: in vivo. The conditions noted are these: 3, 10, 30 mg/kg IP in 15% β-Cyclodextrin; PTZ 85 mg/kg IP; relative to vehicle-treated control. The protocol: FIG. 2A is a graph depicting the seizure rank in PZT treated C57BL6/J mice intraperitoneally administered 3, 10, 30 mg/kg allopregnanolone in 15% β-Cyclodextrin. FIG. 2B is graph depicting the latency to death period in PZT treated C57BL65 mice intraperitoneally administered 3, 10, 30 mg/kg allopregnanolone in 15% β-Cyclodextrin.
Plasma levels of three animals in each Allopregnanolone treatment group were collected randomly at completion of study and analyzed by LC-MS/MS. Bioanalytical measures are indicated in ng/mL (FIG. 2A). Data are presented as mean+/−SEM. *P<0.05 indicate a statistically significant difference relative to vehicle control by Fisher's PLSD. Valproate 400 mg/kg was used as a positive control in the study.

Series [2] in a line: Plasma and brain exposure by LC/MS-MS after single IM or IV dose. To be noted: 30% CAPTISOL, SD rats. The protocol:
FIG. 4A depicts the plasma exposure profiles of allopregnanolone measured by LC/MS-MS after single intramuscular (10 mg/kg) or intravenous (5 mg/kg) allopregnanolone dose in 30% CAPTISOL® in SD rats. FIG. 4B depicts the brain exposure profiles of allopregnanolone measured by LC/MS-MS after single intramuscular (10 mg/kg) or intravenous (5 mg/kg) allopregnanolone dose in 30% CAPTISOL® in SD rats.
The plasma and brain exposure profiles of Allopregnanolone were measured by LC/MS-MS after single intramuscular (IM) (10 mg/kg) or intravenous (IV) (5 mg/kg) dose in 30% CAPTISOL® in SD rats. […] N=2/time point. Error bars, SEM (FIGS. 4A and 4B).

Series [3] relates to penetrating ballistic brain injury rodent model. The series is described as follows: Penetrating ballistic brain injury rodent model of traumatic brain injury. The class given is in vivo. The conditions noted are these: in 6% CAPTISOL; low (2.5 then 1.25 mg/kg/hr) and high (5.0 then 2.50 mg/kg/hr) dose groups, 5 day infusion. From the text: FIG. 5A depicts the latency to fall period (seconds) in a penetrating ballistic brain injury rodent model of traumatic brain injury in both the low and high dose groups progesterone in 6% CAPTISOL®. FIG. 5B depicts the mean motor score in a penetrating ballistic brain injury rodent model of traumatic brain injury in both the low and high dose groups progesterone in 6% CAPTISOL®.
Progesterone in 6% CAPTISOL® rescued motor impairment in a penetrating ballistic brain injury rodent model of traumatic brain injury in both the low and high dose groups (FIG. 5A and FIG. 5B). Progesterone was administered via a bolus loading dose followed by a 5 day continuous infusion where progesterone was tapered over the last 24 hours every 8 hrs by 25%. The low dose group received 2.5 mg/kg/hr for a 1 hr bolus infusion followed by a maintenance dose of 1.25 mg/kg/hr over 5 days with the last 24 hours being a taper. The high dose group received 5.0 mg/kg/hr for a 1 hr bolus infusion followed by a maintenance dose of 2.50 mg/kg/hr over 5 days with the last 24 hours being a taper.

Each structure is given as a SMILES string.

As to `CC(=O)[C@H]1CC[C@H]2[C@@H]3CC[C@H]4C[C@H](O)CC[C@]4(C)[C@H]3CC[C@]12C` [Allopregnanolone, 3 alpha-hydroxy-5 alpha-pregnan-20-one], in the series on Fmr1 KO mice, the “Percent Seizure” value is recorded as “significant decrease” and the “Percent Survival” value was “increase”. In series [1], the “Latency to Death” value is “increase” and the Seizure rank result is listed as “significant decrease”. Besides, in series [2] (0.5-2 hr), the “exposure in plasma, IM (10 mg/kg) relative to IV (5 mg/kg) dose” value is reported as 671-916%. The “exposure in brain, IM (10 mg/kg) relative to IV (5 mg/kg) dose” value in series [2] (1 hr) is on record as 506%.
With `CC(=O)[C@H]1CC[C@H]2[C@@H]3CCC4=CC(=O)CC[C@]4(C)[C@H]3CC[C@]12C` [Progesterone, pregn-4-ene-3,20-dione], in series [3], the “motor impairment (latency to fall, mean motor score)” value is recorded as “rescued”.

(Values after patent publication US11426417B2, “Neuroactive steroid formulations and methods of treating CNS disorders” (Sage Therapeutics, Inc., priority 2012, dated 2022).)
